Patent US9422267B2, “Fused pyrimidine compounds and use thereof” (Medivation Technologies, Inc., priority 2012, dated 2016)

Key:
Abl(T315I) = biological target: T1, Abl(T315I) (Homo sapiens, UniProt P00519, T315I); assay: Caliper kinase profiling: Abl(T315I); type: biochemical
T1 construct: purchased Caliper LifeSciences (ProfilerPro Kinase Selectivity Assay Kits)

BTK = BTK (Homo sapiens, UniProt Q06187); assay: Caliper kinase profiling: BTK; type: biochemical; settings: read-out: Average % Inh @ 1 μM
Sequence of BTK (Q06187 whole entry): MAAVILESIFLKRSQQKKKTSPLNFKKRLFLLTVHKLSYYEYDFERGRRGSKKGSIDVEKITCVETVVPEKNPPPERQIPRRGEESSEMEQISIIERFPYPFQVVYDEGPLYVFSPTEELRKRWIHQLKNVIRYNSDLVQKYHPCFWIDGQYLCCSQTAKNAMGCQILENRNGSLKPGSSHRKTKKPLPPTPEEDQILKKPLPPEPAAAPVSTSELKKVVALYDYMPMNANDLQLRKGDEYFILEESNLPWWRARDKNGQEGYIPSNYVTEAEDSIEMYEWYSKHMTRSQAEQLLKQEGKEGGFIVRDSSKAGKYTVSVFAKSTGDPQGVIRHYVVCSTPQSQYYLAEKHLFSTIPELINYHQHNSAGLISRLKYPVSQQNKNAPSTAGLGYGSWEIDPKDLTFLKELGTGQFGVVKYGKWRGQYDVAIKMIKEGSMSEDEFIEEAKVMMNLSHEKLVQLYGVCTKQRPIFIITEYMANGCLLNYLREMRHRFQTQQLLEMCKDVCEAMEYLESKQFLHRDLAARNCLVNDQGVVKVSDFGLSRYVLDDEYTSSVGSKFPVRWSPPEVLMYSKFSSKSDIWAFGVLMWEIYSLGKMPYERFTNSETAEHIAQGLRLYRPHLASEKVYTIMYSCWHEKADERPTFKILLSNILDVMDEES

EPHA2 = EPHA2 (Homo sapiens, UniProt P29317); assay: Caliper kinase profiling: EPHA2; type: biochemical; settings: EPHA2, 1 μM; read-out: Average % Inh @ 1 μM
Sequence of EPHA2 (P29317 24-976): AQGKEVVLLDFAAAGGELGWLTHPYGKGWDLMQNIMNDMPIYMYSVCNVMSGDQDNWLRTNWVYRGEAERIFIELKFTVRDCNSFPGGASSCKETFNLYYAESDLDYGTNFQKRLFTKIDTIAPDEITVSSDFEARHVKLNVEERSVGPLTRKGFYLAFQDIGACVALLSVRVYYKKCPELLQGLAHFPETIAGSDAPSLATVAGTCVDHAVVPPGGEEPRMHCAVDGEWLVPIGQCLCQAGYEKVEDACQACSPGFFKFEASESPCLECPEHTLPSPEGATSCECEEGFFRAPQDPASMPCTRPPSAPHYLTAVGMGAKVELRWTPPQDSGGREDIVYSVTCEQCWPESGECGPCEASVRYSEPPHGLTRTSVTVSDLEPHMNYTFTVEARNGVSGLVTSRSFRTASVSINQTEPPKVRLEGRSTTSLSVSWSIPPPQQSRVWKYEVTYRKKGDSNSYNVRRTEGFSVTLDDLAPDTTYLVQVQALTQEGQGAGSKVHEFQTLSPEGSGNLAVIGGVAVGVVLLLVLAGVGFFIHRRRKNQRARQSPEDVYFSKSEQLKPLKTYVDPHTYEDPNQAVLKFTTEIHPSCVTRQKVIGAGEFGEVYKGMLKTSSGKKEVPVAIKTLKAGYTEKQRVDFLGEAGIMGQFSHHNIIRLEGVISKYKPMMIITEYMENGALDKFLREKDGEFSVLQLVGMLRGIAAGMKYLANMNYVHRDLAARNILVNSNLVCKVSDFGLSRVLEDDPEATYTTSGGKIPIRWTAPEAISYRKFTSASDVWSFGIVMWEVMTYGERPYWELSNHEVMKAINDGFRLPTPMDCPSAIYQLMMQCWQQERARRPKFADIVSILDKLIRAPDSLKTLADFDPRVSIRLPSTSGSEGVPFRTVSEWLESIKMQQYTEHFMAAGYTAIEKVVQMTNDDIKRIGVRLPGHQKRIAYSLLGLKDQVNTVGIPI

EPHB2 = EPHB2 (Homo sapiens, UniProt P29323); assay: Caliper kinase profiling: EPHB2; type: biochemical; settings: EPHB2, 1 μM; read-out: Average % Inh @ 1 μM
FRK = FRK (Homo sapiens, UniProt P42685); assay: Caliper kinase profiling: FRK; type: biochemical; settings: read-out: Average % Inh @ 1 μM
Sequence of FRK (P42685 whole entry): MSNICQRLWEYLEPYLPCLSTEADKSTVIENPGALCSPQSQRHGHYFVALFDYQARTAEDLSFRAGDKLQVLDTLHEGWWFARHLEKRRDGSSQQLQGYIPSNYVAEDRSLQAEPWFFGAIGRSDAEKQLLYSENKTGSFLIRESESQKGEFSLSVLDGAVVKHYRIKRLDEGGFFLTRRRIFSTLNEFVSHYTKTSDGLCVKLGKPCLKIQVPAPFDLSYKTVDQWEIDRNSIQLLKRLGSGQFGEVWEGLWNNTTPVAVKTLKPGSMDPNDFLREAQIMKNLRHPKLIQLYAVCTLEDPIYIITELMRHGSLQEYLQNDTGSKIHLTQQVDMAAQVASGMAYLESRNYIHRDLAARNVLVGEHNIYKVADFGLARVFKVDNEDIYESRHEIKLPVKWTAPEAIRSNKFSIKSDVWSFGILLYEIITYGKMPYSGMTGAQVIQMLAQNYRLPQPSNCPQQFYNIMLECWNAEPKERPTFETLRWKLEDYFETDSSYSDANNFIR

KDR = KDR (Homo sapiens, UniProt P35968); assay: Caliper kinase profiling: KDR; type: biochemical; settings: read-out: Average % Inh @ 1 μM
Method: The compound was tested at concentrations of 1.0×10^−8 and 1.0×10^−9 M in the RapidKinase192™ panel in duplicate. […] The screening was performed using the Caliper EZReader2, a 4-sipper LabChip, and ProfilerPro Kinase Selectivity Assay Kits 1 and 2. The assay measures the conversion of a fluorescent peptide substrate to a phosphorylated product. Briefly, the reaction mixture was introduced through a capillary sipper onto the microfluidic chip, where the substrate and product were electrophoretically separated and detected by laser-induced fluorescence. The time-dependent fluorescence signal indicates the extent of the reaction.

LTK = LTK (Homo sapiens, UniProt P29376); assay: Caliper kinase profiling: LTK; type: biochemical; settings: read-out: Average % Inh @ 1 μM
Sequence of LTK (P29376 17-864): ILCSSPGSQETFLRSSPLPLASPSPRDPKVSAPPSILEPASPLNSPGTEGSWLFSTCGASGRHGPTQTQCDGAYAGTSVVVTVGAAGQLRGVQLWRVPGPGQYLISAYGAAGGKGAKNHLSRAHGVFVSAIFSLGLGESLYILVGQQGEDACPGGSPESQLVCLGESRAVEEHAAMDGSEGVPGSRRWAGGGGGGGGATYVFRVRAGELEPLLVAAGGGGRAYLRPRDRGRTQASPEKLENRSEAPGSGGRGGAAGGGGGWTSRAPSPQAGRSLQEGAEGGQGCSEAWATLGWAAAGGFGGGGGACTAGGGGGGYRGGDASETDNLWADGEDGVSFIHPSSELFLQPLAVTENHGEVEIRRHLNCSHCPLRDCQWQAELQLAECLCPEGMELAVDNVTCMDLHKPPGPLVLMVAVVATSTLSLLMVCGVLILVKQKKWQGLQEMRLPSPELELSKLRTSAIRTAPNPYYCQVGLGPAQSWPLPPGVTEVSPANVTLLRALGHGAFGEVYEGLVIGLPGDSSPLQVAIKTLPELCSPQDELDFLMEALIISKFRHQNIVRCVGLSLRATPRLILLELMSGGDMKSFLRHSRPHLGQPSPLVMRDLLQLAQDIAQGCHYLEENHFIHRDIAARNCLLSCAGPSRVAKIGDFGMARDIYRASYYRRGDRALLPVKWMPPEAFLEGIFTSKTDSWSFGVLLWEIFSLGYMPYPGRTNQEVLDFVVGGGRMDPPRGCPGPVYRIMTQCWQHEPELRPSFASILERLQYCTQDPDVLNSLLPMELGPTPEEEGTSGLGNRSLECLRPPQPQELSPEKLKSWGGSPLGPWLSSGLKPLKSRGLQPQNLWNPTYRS

LYNB = LYNB (Homo sapiens, UniProt P07948); assay: Caliper kinase profiling: LYNB; type: biochemical
Sequence of LYNB (P07948 1-491 isoform P07948-2): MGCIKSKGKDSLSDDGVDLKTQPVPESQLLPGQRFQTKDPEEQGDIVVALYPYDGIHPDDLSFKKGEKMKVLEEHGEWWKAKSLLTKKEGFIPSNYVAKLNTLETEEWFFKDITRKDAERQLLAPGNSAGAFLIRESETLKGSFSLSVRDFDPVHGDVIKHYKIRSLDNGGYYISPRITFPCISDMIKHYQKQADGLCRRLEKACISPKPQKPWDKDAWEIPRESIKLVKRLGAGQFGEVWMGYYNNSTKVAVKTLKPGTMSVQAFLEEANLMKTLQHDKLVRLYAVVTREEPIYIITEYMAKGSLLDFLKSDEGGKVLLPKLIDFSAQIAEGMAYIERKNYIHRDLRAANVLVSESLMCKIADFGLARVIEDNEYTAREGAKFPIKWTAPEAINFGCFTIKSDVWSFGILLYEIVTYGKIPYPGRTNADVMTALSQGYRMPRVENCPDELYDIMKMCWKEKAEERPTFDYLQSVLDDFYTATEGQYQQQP

MET(M1250T) = MET(M1250T) (Homo sapiens, UniProt P08581, M1250T); assay: Caliper kinase profiling: MET(M1250T); type: biochemical
Sequence of MET(M1250T) (P08581 25-1390 M1250T): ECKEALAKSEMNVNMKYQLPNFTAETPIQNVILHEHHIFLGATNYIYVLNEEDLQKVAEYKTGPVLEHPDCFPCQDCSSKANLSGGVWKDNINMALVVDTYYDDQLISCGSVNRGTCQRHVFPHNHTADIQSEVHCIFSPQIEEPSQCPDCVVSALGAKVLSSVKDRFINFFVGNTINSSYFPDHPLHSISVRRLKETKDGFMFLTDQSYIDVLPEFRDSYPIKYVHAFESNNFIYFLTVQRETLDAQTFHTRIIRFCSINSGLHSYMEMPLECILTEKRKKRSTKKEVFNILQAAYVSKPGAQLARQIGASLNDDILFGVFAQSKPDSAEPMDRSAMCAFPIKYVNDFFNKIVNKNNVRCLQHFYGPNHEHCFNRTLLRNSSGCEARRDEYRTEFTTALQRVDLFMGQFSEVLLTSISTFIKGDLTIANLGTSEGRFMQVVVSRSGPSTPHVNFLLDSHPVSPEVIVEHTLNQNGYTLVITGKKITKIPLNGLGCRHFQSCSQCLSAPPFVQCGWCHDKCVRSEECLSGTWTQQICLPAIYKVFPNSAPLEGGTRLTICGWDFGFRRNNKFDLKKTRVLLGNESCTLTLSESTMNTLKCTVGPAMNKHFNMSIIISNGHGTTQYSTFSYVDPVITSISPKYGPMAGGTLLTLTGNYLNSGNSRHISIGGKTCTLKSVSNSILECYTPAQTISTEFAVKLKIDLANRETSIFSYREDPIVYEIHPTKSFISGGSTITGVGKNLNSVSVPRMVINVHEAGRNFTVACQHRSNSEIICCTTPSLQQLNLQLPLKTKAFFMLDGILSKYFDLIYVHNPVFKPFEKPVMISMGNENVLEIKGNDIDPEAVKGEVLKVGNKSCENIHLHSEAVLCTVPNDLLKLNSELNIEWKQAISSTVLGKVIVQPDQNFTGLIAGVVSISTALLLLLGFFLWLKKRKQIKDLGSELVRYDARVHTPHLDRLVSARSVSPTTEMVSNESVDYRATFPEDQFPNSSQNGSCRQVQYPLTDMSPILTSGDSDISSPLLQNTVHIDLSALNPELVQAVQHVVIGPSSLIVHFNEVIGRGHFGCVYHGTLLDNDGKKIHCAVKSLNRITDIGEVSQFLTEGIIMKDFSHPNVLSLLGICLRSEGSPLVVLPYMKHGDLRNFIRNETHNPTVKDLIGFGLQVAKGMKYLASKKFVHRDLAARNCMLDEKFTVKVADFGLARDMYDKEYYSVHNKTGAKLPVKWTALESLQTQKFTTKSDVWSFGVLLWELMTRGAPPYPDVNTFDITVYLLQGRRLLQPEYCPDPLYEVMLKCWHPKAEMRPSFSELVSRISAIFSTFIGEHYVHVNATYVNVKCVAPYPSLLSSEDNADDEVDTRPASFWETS

NuaK1 = biological target: T2, NuaK1 (Homo sapiens, UniProt O60285); assay: Caliper kinase profiling: NuaK1; type: biochemical
T2 sequence (O60285 1-661): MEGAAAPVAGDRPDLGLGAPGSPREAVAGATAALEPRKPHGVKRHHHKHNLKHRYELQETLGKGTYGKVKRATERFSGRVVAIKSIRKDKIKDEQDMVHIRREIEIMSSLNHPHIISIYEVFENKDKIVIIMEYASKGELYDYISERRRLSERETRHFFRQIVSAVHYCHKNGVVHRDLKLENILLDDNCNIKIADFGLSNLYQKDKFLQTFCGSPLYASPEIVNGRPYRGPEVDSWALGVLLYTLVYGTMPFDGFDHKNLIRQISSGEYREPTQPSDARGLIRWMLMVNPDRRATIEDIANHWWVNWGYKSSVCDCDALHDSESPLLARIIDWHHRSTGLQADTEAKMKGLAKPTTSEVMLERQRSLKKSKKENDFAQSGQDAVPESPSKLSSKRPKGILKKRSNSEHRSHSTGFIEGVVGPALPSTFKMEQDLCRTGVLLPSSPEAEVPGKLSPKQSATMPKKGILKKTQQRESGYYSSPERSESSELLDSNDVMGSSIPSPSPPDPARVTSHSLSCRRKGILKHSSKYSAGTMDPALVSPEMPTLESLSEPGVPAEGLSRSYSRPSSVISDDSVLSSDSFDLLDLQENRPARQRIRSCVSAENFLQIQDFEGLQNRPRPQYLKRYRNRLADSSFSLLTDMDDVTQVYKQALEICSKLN

[1] = system: over 50 of the panel of 72 non-kinase targets (Table B14); assay: Extended panel screen against non-kinase targets (LeadProfilingScreen and CYP450 assays); type: binding; settings: read-out: percent inhibition for over 50 of the non-kinase targets tested
Method: (§1) Compound no. The experiments were performed by Ricerca Biosciences (Painesville, Ohio) using the LeadProfilingScreen and CYP450 assays. Compound no. 8b was screened at a concentration of 1 μM. No significant hits were identified.

[2] = system: panel of 72 non-kinase targets (Table B14), incl. CYP450; assay: as above; type: binding; settings: 72 non-kinase targets, read-out: percent inhibition of all non-kinase targets
Method: as §1

PANC-1 = assay: Cell viability: pancreatic cancer cell line PANC-1; type: cell-based; settings: Homo sapiens; PANC-1 pancreatic cancer cell line
Method: This assay quantitates the ATP present in order to determine the number of viable cells in culture. Briefly, the compounds were incubated with the cells for 72 h, followed by cell lysis. The resulting luminescent signal is proportional to the amount of ATP present and, therefore, directly proportional to the number of cells present in culture.
Analogous studies utilizing pancreatic cancer cell lines such as ASPC-1 and PANC-1 can be performed with compounds of the invention.

[3] = system: human colon cancer COLO-205 cells; assay: Efficacy in xenograft model of human colon cancer; type: in vivo, mice
Method: To evaluate the efficacy of tumor growth inhibition, the compound 8b was studied using human cancer mouse models. The models are prepared by subcutaneously or orthotopically implanting mice with human cancer cells. When the tumor size of the mice develops (e.g., reaches 100 mm^3), the mice are divided into groups for treatment with compound 8b (where different groups receiving the compound 8b may be administered different amounts of the compound 8b) or are provided no compound as a control. The mice are treated (e.g., orally administered a compound of the invention) for a period of time. During the course of the study, the tumor is measured and the weight of the mice is determined. After the treatment period, the mice are sacrificed shortly (e.g. 1 or 2 hours) after the final dose. Blood and tissue are collected for biochemical analysis.
To evaluate the efficacy of tumor growth inhibition, compound 8b was studied using a human colon cancer mouse model. […] Tumor volume and mouse body weight were monitored over the 20 day experiment. […]
The appropriate amount of compound 8b was sonicated in a PEG-400 solution (80% w/v in case of Example B6B; and 50% w/v in case of Example B6C) to completely dissolve the compound, followed by dropwise addition of the required amount of H2O. […] During the course of the study, the tumor was measured and the weight of the mice was determined. […]

[4] = 10 nM, read-out: Average % Inh @ 10 nM
[5] = 100 nM, read-out: Average % Inh @ 100 nM
[6] = 1 μM, read-out: Average % Inh @ 1 μM

In the case of O=C(Nc1ccc(F)nc1)C1CCCN1c1nc2c(c(Nc3cc(C4CC4)[nH]n3)n1)CCC2 (single isomer, unassigned) [Compound 2b, 1-(4-(5-cyclopropyl-1H-pyrazol-3-ylamino)-6,7-dihydro-5H-cyclopenta[d]pyrimidin-2-yl)-N-(6-fluoropyridin-3-yl)pyrrolidine-2-carboxamide], the inhibition at 0.01 µM (Abl(T315I); [4]) is reported as less than 39%, the inhibition at 0.1 µM (Abl(T315I); [5]) is reported as less than 39% and the inhibition at 1 µM (Abl(T315I); [6]) is reported as greater than 60%. For the same compound, the inhibition at 1 µM (BTK) was 40 to 59%, the inhibition at 1 µM (EPHA2) was greater than 60% and the inhibition at 1 µM (EPHB2) was greater than 60%. The inhibition at 1 µM (FRK) was greater than 60%, the inhibition at 1 µM (KDR) was 40 to 59% and the inhibition at 1 µM (LTK) was greater than 60%. It also gave an inhibition at 0.01 µM (LYNB; [4]) of less than 39%, an inhibition at 0.1 µM (LYNB; [5]) of 40 to 59% and an inhibition at 1 µM (LYNB; [6]) greater than 60%. For the same compound, the inhibition at 0.01 µM (MET(M1250T); MET M1250T, 10 nM, read-out: Average % Inh @ 10 nM) was less than 39%, the inhibition at 0.1 µM (MET(M1250T); MET M1250T, 100 nM, read-out: Average % Inh @ 100 nM) was less than 39% and the inhibition at 1 µM (MET(M1250T); MET(M1250T), 1 μM, read-out: Average % Inh @ 1 μM) was greater than 60%. It also gave an inhibition at 0.01 µM (NuaK1; NuaK1, 10 nM, read-out: Average % Inh @ 10 nM) of less than 39%, an inhibition at 0.1 µM (NuaK1; NuaK1, 100 nM, read-out: Average % Inh @ 100 nM) of 40 to 59% and an inhibition at 1 µM (NuaK1; NuaK1, 1 μM, read-out: Average % Inh @ 1 μM) greater than 60%.

Compound CC(C)c1cc(Nc2nc(N3CCCC3C(=O)Nc3ccc(F)nc3)nc3c2CCC3)n[nH]1 (single isomer, unassigned) [Compound 8b] has an inhibition at 1 µM [1] of less than 10%, an inhibition at 1 µM [2] of less than 30% and an IC50 (PANC-1) of 3.66 µM. The tumor burden ([3]; COLO205 colon cancer model, nude mice, 1, 3, 10, 15 mg/kg oral, 20 day experiment (FIG. 1)) was “dose-dependently and significantly reduced tumor burden” and the “body weights of the mice” value ([3]; COLO205 xenograft model (FIG. 3)) was “dose-dependently reduced body weights”.
